Inconclusive results and toxic doses are left out. Rule for the calls: active = survival T/C of 150% or more; inactive = T/C below 125% in these data.
Test system: BDF1 mice, B16 melanoma ip, median survival T/C
Assay: NCI In Vivo Anticancer Drug Screen. Data for tumor model B16 Melanoma (intraperitoneal) in B6D2F1 (BDF1) mice
Settings: endpoint: median survival time, higher = longer survival
Procedure, shortened: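 Each result divides a survival or tumor-size measurement in the compound-treated group by the same measurement in the vehicle group.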

[1] = dose: 12.5 mg/kg/injection, schedule: Q04DX003 (ip), vehicle: saline with Tween-80
[2] = dose: 25.0 mg/kg/injection, schedule: Q04DX003 (ip), vehicle: saline with Tween-80
[3] = dose: 100.0 mg/kg/injection, schedule: Q01DX009 (ip), vehicle: Klucel (hydroxypropylcellulose) (HPC)
[4] = dose: 200.0 mg/kg/injection, schedule: Q01DX009 (ip), vehicle: Klucel (hydroxypropylcellulose) (HPC)
[5] = dose: 400.0 mg/kg/injection, schedule: Q01DX009 (ip), vehicle: Klucel (hydroxypropylcellulose) (HPC)
[6] = dose: 50.0 mg/kg/injection, schedule: Q01DX009 (ip), vehicle: saline with Tween-80
[7] = dose: 25.0 mg/kg/injection, schedule: Q01DX009 (ip), vehicle: Klucel (hydroxypropylcellulose) (HPC)
[8] = dose: 50.0 mg/kg/injection, schedule: Q01DX009 (ip), vehicle: Klucel (hydroxypropylcellulose) (HPC)
[9] = dose: 100.0 mg/kg/injection, schedule: Q01DX009 (ip), vehicle: saline with Tween-80
[10] = dose: 200.0 mg/kg/injection, schedule: Q01DX009 (ip), vehicle: saline with Tween-80
[11] = dose: 6.25 mg/kg/injection, schedule: Q01DX009 (ip), vehicle: saline
[12] = dose: 12.5 mg/kg/injection, schedule: Q01DX009 (ip), vehicle: saline
[13] = dose: 25.0 mg/kg/injection, schedule: Q01DX009 (ip), vehicle: saline
[14] = dose: 400.0 mg/kg/injection, schedule: Q01DX009 (ip), vehicle: saline with Tween-80

Measured: T/C

O=C(CC(=Nc1ccccc1)c1ccccc1)c1ccccc1.O=C(CC(=Nc1ccccc1)c1ccccc1)c1ccccc1.[Cu]
inactive: dose: 6.25 mg/kg/injection, schedule: Q04DX003 (ip), vehicle: saline with Tween-80 93 % of control | [1] 86 % of control | [2] 91 % of control

C=CCNC(=S)NCC=C
inactive: [3] 97 % of control | [4] 92 % of control | [5] 102 % of control

Nc1ccc2c(c1)CN1C(=O)c3ccccc3C1=N2
inactive: dose: 12.5 mg/kg/injection, schedule: Q01DX009 (ip), vehicle: saline with Tween-80 101 % of control | dose: 25.0 mg/kg/injection, schedule: Q01DX009 (ip), vehicle: saline with Tween-80 103 % of control | [6] 111 % of control

Cc1ccc(Nc2ccc([N+](=O)[O-])cc2[N+](=O)[O-])c(C)c1
inactive: [3] 93 % of control | [4] 98 % of control | [5] 97 % of control

O=C(C=C(C(F)(F)F)C(F)(F)F)c1cccc(S(=O)(=O)F)c1
inactive: dose: 1.56 mg/kg/injection, schedule: Q01DX009 (ip), vehicle: saline with Tween-80 86 % of control | dose: 3.13 mg/kg/injection, schedule: Q01DX009 (ip), vehicle: saline with Tween-80 93 % of control | dose: 6.25 mg/kg/injection, schedule: Q01DX009 (ip), vehicle: saline with Tween-80 89 % of control | dose: 8.0 mg/kg/injection, schedule: Q04DX003 (ip), vehicle: saline 105 % of control | dose: 12.0 mg/kg/injection, schedule: Q04DX003 (ip), vehicle: saline 105 % of control | dose: 18.0 mg/kg/injection, schedule: Q04DX003 (ip), vehicle: saline 110 % of control

C[CH2][Ge]1([CH2]C)[CH2]CC2(CCN(CCCN(C)C)C2)C[CH2]1
inactive: dose: 8.0 mg/kg/injection, schedule: Q02DX009 (ip), vehicle: saline 102 % of control | dose: 16.0 mg/kg/injection, schedule: Q02DX009 (ip), vehicle: saline 106 % of control | dose: 32.0 mg/kg/injection, schedule: Q02DX009 (ip), vehicle: saline 102 % of control

CC(C)(COC(=O)c1ccccc1)COC(=O)c1ccccc1
inactive: [3] 111 % of control | [4] 105 % of control | [5] 99 % of control

Cc1c[n+]2c3ccccc3c3ccccc3c2s1
inactive: dose: 10.0 mg/kg/injection, schedule: Q01DX009 (ip), vehicle: saline 105 % of control | dose: 20.0 mg/kg/injection, schedule: Q01DX009 (ip), vehicle: saline 105 % of control

CNc1nc(N)nc(Nc2ccc(I)cc2)c1N=O
inactive: [7] 99 % of control | [8] 90 % of control | [6] 94 % of control | [3] 96 % of control | [9] 94 % of control | [10] 94 % of control | [5] 123 % of control

CCOC(=O)C(CC)c1ccccc1 (stereo unspecified)
inactive: [6] 91 % of control | [9] 95 % of control

Cc1ccc(S(=O)(=O)OC2CCN(C)CC2)cc1
inactive: dose: 3.0 mg/kg/injection, schedule: Q04DX003 (ip), vehicle: Klucel (hydroxypropylcellulose) (HPC) 90 % of control | dose: 6.0 mg/kg/injection, schedule: Q04DX003 (ip), vehicle: Klucel (hydroxypropylcellulose) (HPC) 86 % of control | [11] 100 % of control | dose: 6.25 mg/kg/injection, schedule: Q04DX003 (ip), vehicle: saline 94 % of control | [12] 100 % of control | dose: 12.5 mg/kg/injection, schedule: Q04DX003 (ip), vehicle: saline 97 % of control | [13] 100 % of control | dose: 25.0 mg/kg/injection, schedule: Q04DX003 (ip), vehicle: saline 94 % of control

CCCCCCCCCCCCCC(=O)CC
inactive: dose: 9.4 mg/kg/injection, schedule: Q01DX009 (ip), vehicle: saline with Tween-80 95 % of control | dose: 18.75 mg/kg/injection, schedule: Q01DX009 (ip), vehicle: saline with Tween-80 87 % of control

Cc1ccc2c(c1)C(=O)c1ccccc1S2(=O)=O
inactive: [3] 104 % of control | [4] 98 % of control | [5] 93 % of control

COC(=O)C12Oc3ccc(-c4ccc5c(c4O)C(O)=C4C(=O)CC(C)C(O)C4(C(=O)OC)O5)c(O)c3C(O)=C1C(=O)CC(C)C2O (stereo unspecified)
inactive: dose: 0.15 mg/kg/injection, schedule: Q01DX009 (ip), vehicle: saline with Tween-80 98 % of control | dose: 0.31 mg/kg/injection, schedule: Q01DX009 (ip), vehicle: saline with Tween-80 93 % of control | dose: 0.62 mg/kg/injection, schedule: Q01DX009 (ip), vehicle: saline with Tween-80 104 % of control | dose: 1.25 mg/kg/injection, schedule: Q01DX009 (ip), vehicle: saline with Tween-80 95 % of control

CCCCCCCCCC(=O)N(C)OC
inactive: [1] 100 % of control | [2] 104 % of control | dose: 50.0 mg/kg/injection, schedule: Q04DX003 (ip), vehicle: saline with Tween-80 100 % of control

COc1cc(C(=O)N2CCN(c3ccccc3)CC2)c2ccccc2n1
inactive: [9] 119 % of control | [10] 119 % of control | [14] 124 % of control

C/C(=N/NC(N)=S)c1ccc2ccccc2c1
inactive: dose: 6.0 mg/kg/injection, schedule: Q01DX009 (ip), vehicle: saline with Tween-80 111 % of control | dose: 12.0 mg/kg/injection, schedule: Q01DX009 (ip), vehicle: saline with Tween-80 105 % of control

COC(=O)c1cc([N+](=O)[O-])cc2ccccc12
inactive: [8] 100 % of control | [3] 97 % of control | [4] 94 % of control

C=Cc1c2[n-]c(c1C)/C=c1\[n-]/c(c(C)c1C=C)=C\c1[n-]c(c(CCC(=O)O)c1C)/C=c1\[n-]/c(c(C)c1CCC(=O)O)=C\2.[Co]
inactive: [7] 95 % of control | [8] 94 % of control | [3] 92 % of control | [4] 87 % of control | dose: 1:1.0 dilution, schedule: Q01DX009 (ip), vehicle: saline 90 % of control | dose: 1:2.0 dilution, schedule: Q01DX009 (ip), vehicle: saline 99 % of control | dose: 1:4.0 dilution, schedule: Q01DX009 (ip), vehicle: saline 105 % of control | dose: 1:8.0 dilution, schedule: Q01DX009 (ip), vehicle: saline 112 % of control

CC(=O)OCC1OC(n2cnc3c(=S)nc(N)[nH]c32)C(OC(C)=O)C1OC(C)=O (stereo unspecified)
inactive: [11] 118 % of control | [12] 105 % of control | [13] 101 % of control

S=C(NC1CCCCC1)NC1CCCCC1
inactive: [9] 95 % of control | [10] 114 % of control | [14] 90 % of control

COC(=O)C1(C(=O)OC)C=CCCC1=O
inactive: [3] 99 % of control | [4] 97 % of control

COc1cc(C(=O)N2CCOCC2)cc(OC)c1OC
inactive: [7] 110 % of control | [8] 102 % of control | [3] 92 % of control | [4] 97 % of control | [5] 102 % of control

O=C(NC(C(=O)O)c1ccccc1)OCc1ccccc1 (stereo unspecified)
inactive: [6] 97 % of control | [9] 98 % of control | [10] 98 % of control

OC(c1ccccc1)(c1c2ccccc2cc2ccccc12)C1CCC1 (stereo unspecified)
inactive: dose: 75.0 mg/kg/injection, schedule: Q01DX009 (ip), vehicle: Klucel (hydroxypropylcellulose) (HPC) 100 % of control | dose: 150.0 mg/kg/injection, schedule: Q01DX009 (ip), vehicle: Klucel (hydroxypropylcellulose) (HPC) 102 % of control | dose: 300.0 mg/kg/injection, schedule: Q01DX009 (ip), vehicle: Klucel (hydroxypropylcellulose) (HPC) 91 % of control

O=C(NC(CO)C(=O)OCc1ccccc1)OCc1ccccc1 (stereo unspecified)
inactive: [9] 111 % of control | [10] 113 % of control | [14] 105 % of control

COc1ccc(NC(=O)Nc2c(C)cc(C)cc2C)cc1
inactive: dose: 100.0 mg/kg/injection, schedule: Q01DX009 (ip), vehicle: gum acacia 96 % of control | dose: 200.0 mg/kg/injection, schedule: Q01DX009 (ip), vehicle: gum acacia 90 % of control | dose: 400.0 mg/kg/injection, schedule: Q01DX009 (ip), vehicle: gum acacia 101 % of control

CN(C)CCCN1Cc2ccccc2Cc2ccccc21
inactive: [11] 105 % of control | [12] 103 % of control | [13] 111 % of control | dose: 50.0 mg/kg/injection, schedule: Q01DX009 (ip), vehicle: saline 101 % of control | dose: 100.0 mg/kg/injection, schedule: Q01DX009 (ip), vehicle: saline 107 % of control

— PubChem BioAssay AID192 (DTP/NCI, 2004)
